In article PMC11944677, “Integrating Surface Plasmon Resonance and Docking Analysis for Mechanistic Insights of Tryptase Inhibitors” (Molecules, 2025):

Target: T1, human tryptase beta-2 (hTPSB2) (Homo sapiens, UniProt P20231)
T1 construct: gene TPSB2
Assay: biochemical

T1 sequence (P20231 31-275): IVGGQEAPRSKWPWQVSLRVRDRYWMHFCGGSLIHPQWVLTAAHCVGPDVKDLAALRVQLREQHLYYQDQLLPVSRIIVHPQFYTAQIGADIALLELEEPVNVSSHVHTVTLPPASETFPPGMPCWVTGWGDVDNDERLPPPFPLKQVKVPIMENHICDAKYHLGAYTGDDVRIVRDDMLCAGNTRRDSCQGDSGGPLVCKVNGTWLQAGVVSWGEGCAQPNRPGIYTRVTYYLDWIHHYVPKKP

SMILES	Kd [nM]
C[Si](C)(O[Si](C)(C)c1coc2ccc(C(=O)N3CCC(c4cccc(CN)c4)CC3)cc12)c1coc2ccc(C(=O)N3CCC(c4cccc(CN)c4)CC3)cc12 [#2d, compound #2d]	2.1
C[Si](C)(O)c1coc2ccc(C(=O)N3CCC(c4cccc(CN)c4)CC3)cc12 [#2m, compound #2m]	81
